Measured values: US20230151003A1, “COMPOUNDS AND METHODS OF USE” (Exelixis, Inc., priority 2020, published 2023)

Each molecule was assayed against T1, AXL (Homo sapiens, UniProt P30530) (assay: AXL autophosphorylation ELISA in A-172 cells). Conditions: Table 3 Cellular Activities, Gas6-stimulated, phospho-AXL ELISA.
T1 construct: endogenous in cells; host or cells: A-172 glioblastoma cells (ATCC #CRL-1620)
T1 sequence (P30530 26-894): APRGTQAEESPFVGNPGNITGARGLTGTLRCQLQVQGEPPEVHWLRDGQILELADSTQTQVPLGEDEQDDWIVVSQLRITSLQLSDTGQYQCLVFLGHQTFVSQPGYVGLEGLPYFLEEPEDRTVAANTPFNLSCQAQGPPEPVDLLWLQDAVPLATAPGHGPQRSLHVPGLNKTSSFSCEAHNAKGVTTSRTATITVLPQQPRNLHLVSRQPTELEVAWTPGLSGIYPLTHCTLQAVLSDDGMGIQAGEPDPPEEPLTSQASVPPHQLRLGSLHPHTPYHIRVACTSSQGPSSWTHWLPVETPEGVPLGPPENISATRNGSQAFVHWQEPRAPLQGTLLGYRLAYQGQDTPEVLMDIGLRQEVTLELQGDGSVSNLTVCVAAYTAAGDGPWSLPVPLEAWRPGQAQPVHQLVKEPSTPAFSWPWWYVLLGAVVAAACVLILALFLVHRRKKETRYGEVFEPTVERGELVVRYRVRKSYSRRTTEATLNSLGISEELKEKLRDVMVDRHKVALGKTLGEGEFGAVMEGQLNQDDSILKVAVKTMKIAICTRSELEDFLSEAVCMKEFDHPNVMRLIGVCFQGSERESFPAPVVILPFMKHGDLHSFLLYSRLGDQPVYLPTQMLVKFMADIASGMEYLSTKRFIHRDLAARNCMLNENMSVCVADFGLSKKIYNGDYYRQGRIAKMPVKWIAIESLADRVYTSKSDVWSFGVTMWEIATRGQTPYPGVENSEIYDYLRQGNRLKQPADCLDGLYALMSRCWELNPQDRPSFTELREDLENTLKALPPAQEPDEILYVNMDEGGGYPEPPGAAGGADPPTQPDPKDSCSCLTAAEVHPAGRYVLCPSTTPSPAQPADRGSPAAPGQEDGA
Format: cell-based
Procedure: A-172 glioblastoma cells (ATCC #CRL-1620) were seeded at 2.5×10^5 cells/well onto 24-well plates (Greiner #662165), in DMEM (Thermo Fisher #11995-040) containing 10% FBS (Thermo Fisher #26140-079), 1% MEM NEAA (Thermo Fisher #11140-050), 1% GlutaMax (Thermo Fisher #35050-061), and 1% Penicillin Streptomycin (Thermo Fisher #15140-122). A-172 cells were incubated at 37° C., 5% CO2 for 24 h and then starved for 24 h in serum-free medium. Test compounds were serially diluted to produce an 8-point dose curve in fresh serum-free medium to a final concentration of 0.3% DMSO (vehicle) and added to the cells and incubated for 1 h. Cells were then stimulated with 1 μg/mL recombinant human Gas6 (R&D Systems #885-GSB-500) for 15 min, washed with cold PBS, and immediately lysed with 150 μL of cold 1× lysis buffer [20 mM Tris, 137 mM sodium chloride, 2 mM EDTA, 10% glycerol, 1% NP-40 alternative, 1 mM activated sodium orthovanadate, 1 mM PefaBloc SC (Sigma-Aldrich #11429868001), protease/phosphatase inhibitor tablet (Thermo Fisher #A32959)]. Lysates were collected and 100 μL/well added into the human phospho-AXL DuoSet IC ELISA (R&D Systems #DYC2228-2). Assay was performed according to manufacturer's instructions and sample phospho-AXL concentrations were extrapolated using human phospho-AXL control (R&D Systems #841645) as a standard. Positive control wells (100% activity) contained Gas6-stimulated, DMSO-treated cell lysates. Negative control wells (0% activity) contained Gas6-stimulated, reference inhibitor-treated cell lysates. IC50 values were calculated by nonlinear regression analysis using a 4-parameter logistic curve fit in ActivityBase XE (IDBS).

Row | IC50 [µM] | SMILES
1 | 0.1 to 0.3 | COc1cnc2c(Oc3ccc(NC(=O)c4cc(C(C)=O)c(C)n(-c5ccco5)c4=O)cc3F)ccnc2c1 [Compound 238, 5-Acetyl-N-[3-fluoro-4-[(7-methoxy-1,5-naphthyridin-4-yl)oxy]phenyl]-1-(furan-2-yl)-6-methyl-2-oxopyridine-3-carboxamide]
2 | ≤ 0.1 | COc1cc2nccc(Oc3ccc(NC(=O)c4c(C)ncc(-c5cccnc5)c4O)cc3F)c2nc1OC [Compound 228, N-[4-[(6,7-Dimethoxy-1,5-naphthyridin-4-yl)oxy]-3-fluorophenyl]-4-hydroxy-2-methyl-5-pyridin-3-ylpyridine-3-carboxamide]
3 | ≤ 0.1 | COc1cc2nccc(Oc3ccc(NC(=O)c4cnc(C)c(-c5cccs5)c4O)cc3)c2nc1OC [Compound 256, N-[4-[(6,7-Dimethoxy-1,5-naphthyridin-4-yl)oxy]phenyl]-4-hydroxy-6-methyl-5-thiophen-2-ylpyridine-3-carboxamide]
4 | ≤ 0.1 | COc1cc2nccc(Oc3ccc(NC(=O)c4c5n(cc(-c6ccco6)c4=O)CCOC5)cc3)c2nc1OC [Compound 298, N-[4-[(6,7-Dimethoxy-1,5-naphthyridin-4-yl)oxy]phenyl]-7-(furan-2-yl)-8-oxo-3,4-dihydro-1H-pyrido[2,1-c][1,4]oxazine-9-carboxamide]
5 | ≤ 0.1 | COc1cc2nccc(Oc3ccc(NC(=O)c4cn(CCF)c(C)c(-c5cccs5)c4=O)cc3F)c2nc1OC [Compound 327, N-[4-[(6,7-Dimethoxy-1,5-naphthyridin-4-yl)oxy]-3-fluorophenyl]-1-(2-fluoroethyl)-6-methyl-4-oxo-5-thiophen-2-ylpyridine-3-carboxamide]
6 | ≤ 0.1 | COc1cc2nccc(Oc3ccc(NC(=O)c4ccc(C)n(-c5ccnc(O)c5)c4=O)cc3F)c2nc1OC [Compound 232, N-[4-[(6,7-Dimethoxy-1,5-naphthyridin-4-yl)oxy]-3-fluorophenyl]-1-(2-hydroxypyridin-4-yl)-6-methyl-2-oxopyridine-3-carboxamide]
7 | ≤ 0.1 | COc1ccc2nccc(Oc3ccc(NC(=O)c4ccc(C)n(-c5ccc(F)cn5)c4=O)cc3F)c2c1 [Compound 49, N-[3-Fluoro-4-(6-methoxyquinolin-4-yl)oxyphenyl]-1-(5-fluoropyridin-2-yl)-6-methyl-2-oxopyridine-3-carboxamide]
8 | ≤ 0.1 | COCCOc1cc2nccc(Oc3ccc(NC(=O)c4c(C)n(C)c(C)c(-c5coc6ccccc56)c4=O)cc3F)c2nc1OC [Compound 264, 5-(1-Benzofuran-3-yl)-N-[3-fluoro-4-[[6-methoxy-7-(2-methoxyethoxy)-1,5-naphthyridin-4-yl]oxy]phenyl]-1,2,6-trimethyl-4-oxopyridine-3-carboxamide]
9 | ≤ 0.1 | COc1cc2nccc(Oc3ccc(NC(=O)c4ccc(C)n(-c5cccnc5)c4=O)cc3F)c2nc1OC [Compound 222, N-[4-[(6,7-Dimethoxy-1,5-naphthyridin-4-yl)oxy]-3-fluorophenyl]-6-methyl-2-oxo-1-pyridin-3-ylpyridine-3-carboxamide]
10 | ≤ 0.1 | COc1cc2nccc(Oc3ccc(NC(=O)c4cc(C(C)=O)c(C)n(-c5ccco5)c4=O)cc3F)c2nc1OC [Compound 236, 5-Acetyl-N-[4-[(6,7-dimethoxy-1,5-naphthyridin-4-yl)oxy]-3-fluorophenyl]-1-(furan-2-yl)-6-methyl-2-oxopyridine-3-carboxamide]
11 | ≤ 0.1 | COc1cc2c(Oc3ccc(NC(=O)c4c(C)ncc(-c5ccccn5)c4O)cc3F)ccnc2cn1 [Compound 223, N-[3-Fluoro-4-[(6-methoxy-1,7-naphthyridin-4-yl)oxy]phenyl]-4-hydroxy-2-methyl-5-pyridin-2-ylpyridine-3-carboxamide]
12 | ≤ 0.1 | COc1cc2nccc(Oc3ccc(NC(=O)c4c5n(cc(-c6ccoc6)c4=O)CCOC5)cc3F)c2nc1OC [Compound 306, N-[4-[(6,7-Dimethoxy-1,5-naphthyridin-4-yl)oxy]-3-fluorophenyl]-7-(furan-3-yl)-8-oxo-3,4-dihydro-1H-pyrido[2,1-c][1,4]oxazine-9-carboxamide]
13 | ≤ 0.1 | COc1cc2nccc(Oc3ccc(NC(=O)c4ccc(C)n(-c5ccnc(F)c5)c4=O)cc3F)c2nc1OC [Compound 233, N-[4-[(6,7-Dimethoxy-1,5-naphthyridin-4-yl)oxy]-3-fluorophenyl]-1-(2-fluoropyridin-4-yl)-6-methyl-2-oxopyridine-3-carboxamide]
14 | ≤ 0.1 | COc1cc2nccc(Oc3ccc(NC(=O)c4c5n(cc(-c6cc(C)cs6)c4=O)CCOC5)cc3F)c2nc1OC [Compound 302, N-[4-[(6,7-Dimethoxy-1,5-naphthyridin-4-yl)oxy]-3-fluorophenyl]-7-(4-methylthiophen-2-yl)-8-oxo-3,4-dihydro-1H-pyrido[2,1-c][1,4]oxazine-9-carboxamide]
15 | ≤ 0.1 | COc1cc2nccc(Oc3ccc(NC(=O)c4cnc(C)c(-c5ccco5)c4O)cc3)c2cc1OC [Compound 258, N-[4-(6,7-Dimethoxyquinolin-4-yl)oxyphenyl]-5-(furan-2-yl)-4-hydroxy-6-methylpyridine-3-carboxamide]
16 | ≤ 0.1 | COCCOc1cc2nccc(Oc3ccc(NC(=O)c4c(C)n(C)c(C)c(-c5ccco5)c4=O)cc3F)c2nc1OC [Compound 254, N-[3-Fluoro-4-[[6-methoxy-7-(2-methoxyethoxy)-1,5-naphthyridin-4-yl]oxy]phenyl]-5-(furan-2-yl)-1,2,6-trimethyl-4-oxopyridine-3-carboxamide]
17 | ≤ 0.1 | COc1cc2nccc(Oc3ccc(NC(=O)c4cccn(-c5ccncc5)c4=O)cc3F)c2nc1OC [Compound 229, N-[4-[(6,7-Dimethoxy-1,5-naphthyridin-4-yl)oxy]-3-fluorophenyl]-2-oxo-1-pyridin-4-ylpyridine-3-carboxamide]
18 | ≤ 0.1 | COCCOc1cc2nccc(Oc3ccc(NC(=O)c4cnc(C)c(-c5ccco5)c4O)cc3F)c2nc1OC [Compound 260, N-[3-Fluoro-4-[[6-methoxy-7-(2-methoxyethoxy)-1,5-naphthyridin-4-yl]oxy]phenyl]-5-(furan-2-yl)-4-hydroxy-6-methylpyridine-3-carboxamide]
19 | ≤ 0.1 | COc1cc2nccc(Oc3ccc(NC(=O)c4ccc(C)n(-c5ccnc(C)c5)c4=O)cc3F)c2nc1OC [Compound 230, N-[4-[(6,7-Dimethoxy-1,5-naphthyridin-4-yl)oxy]-3-fluorophenyl]-6-methyl-1-(2-methylpyridin-4-yl)-2-oxopyridine-3-carboxamide]
20 | ≤ 0.1 | COc1cc2nccc(Oc3ccc(NC(=O)c4c5n(cc(-c6ccco6)c4=O)CCOC5)cc3F)c2nc1OC [Compound 297, N-[4-[(6,7-Dimethoxy-1,5-naphthyridin-4-yl)oxy]-3-fluorophenyl]-7-(furan-2-yl)-8-oxo-3,4-dihydro-1H-pyrido[2,1-c][1,4]oxazine-9-carboxamide]
21 | ≤ 0.1 | COc1cc2nccc(Oc3ccc(NC(=O)c4c5n(cc(-c6cccs6)c4=O)CCOC5)cc3)c2nc1OC [Compound 299, N-[4-[(6,7-Dimethoxy-1,5-naphthyridin-4-yl)oxy]phenyl]-8-oxo-7-thiophen-2-yl-3,4-dihydro-1H-pyrido[2,1-c][1,4]oxazine-9-carboxamide]
22 | ≤ 0.1 | COc1cc2nccc(Oc3ccc(NC(=O)c4cc(C#N)c(C)n(-c5ccc(F)cn5)c4=O)cc3F)c2nc1OC [Compound 56, 5-Cyano-N-[4-[(6,7-dimethoxy-1,5-naphthyridin-4-yl)oxy]-3-fluorophenyl]-1-(5-fluoropyridin-2-yl)-6-methyl-2-oxopyridine-3-carboxamide]
